Source: patent publication US9980937B2, “Therapeutic agent for Alzheimer's disease” (NAGASAKI UNIVERSITY, priority 2014, dated 2018)

Columns and labels:
neprilysin [1] = experiment: neprilysin-dependent neutral endopeptidase activity of APP-H4 cell extract (suc-AAF-AMC coupled enzyme assay); format: cell-based, human; settings: APP-H4 cells, 48 hr, 1 or 10 μM; activity without polyphenol derivative = 1 (FIG. 1)
Experimental: (§1) APP-H4 cells were seeded to a 6-well plate at a density of 12×10^4 cells/1.5 mL, and cultured in Dulbecco's modified Eagle's medium (DMEM; Nacalai Tesque, Inc.) added with 10% fetal bovine serum (FBS; Equitech-Bio, Inc. [Kerrville, Tex., USA]), 100 U/mL penicillin+100 μg/mL streptomycin (Nacalai Tesque, Inc.). After culture for 24 hr, the culture supernatant was removed, and the medium was exchanged with a medium with reduced use amount of serum, Opti-MEM (registered trade mark) I Reduced Serum Medium (Life Technologies Corporation, Carlsbad, Calif., USA) (1 mL). A polyphenol derivative (1 μL) to be the test target was added, and the mixture was further cultured for 48 hr. After culture, the culture supernatant was recovered in a tube (total amount 1.5 mL), centrifuged at 4,000×g/4° C./10 min to remove dead cells, and the supernatant (800 μL) was placed in a new tube. The culture supernatant was preserved at −80° C. before sample preparation. The cells were washed twice with ice-cooled phosphate-buffered saline (PBS). Thereafter, the cells were scraped from the plate using a Cell Scraper. The cells were recovered in a 1.5 mL tube and centrifuged at 4,000×g/4° C./10 min. The supernatant was removed and the cells were preserved at −80° C. before sample preparation. The frozen cells were lysed in 40 μL of solubilization buffer containing 1% Triton X-100, protease inhibitor cocktail Complete™ EDTA-free (Roche) and 50 mM Tris-HCl on ice. The cell lysate was incubated on ice for 60 min, centrifuged at 4° C., 21,900×g for 30 min, and the supernatant was recovered and used as a solubilization cell extract.
The total protein concentration of the cell extract was determined by a BCA protein assay kit (Takara) by using BSA as the standard solution. The final concentration of the test compound used was 1 μM or 10 μM, and quantification was performed using each solvent as a control.
The neprilysin-dependent neutral endopeptidase activity of the cell extract was measured fluorescence quantitatively by an indirect coupled enzyme assay method. […] Total 50 μL of the reaction mixture was prepared such that the final concentration was substrate 0.1 mM suc-AAF-AMC, protein in the cell extract 1-6 μg, 100 mM MES buffer (pH 6.5). With the time of addition of the substrate as the start of the reaction, the mixture was reacted at 37° C. for 1 hr, and Phe-AMC was cut out from the substrate by neutral endopeptidase. […] The mixture was reacted at 37° C. for 30 min, and Phe (phenylalanine) residue was cut out from Phe-AMC by aminopeptidase.

neprilysin [2] = experiment: neprilysin expression amount at protein level (western blot, APP-H4 cells); format: cell-based, human; settings: 48 hr, standardized to β-actin (FIG. 2)
Experimental: as §1
The aforementioned cell extract was mixed with 6×SDS-polyacrylamide gel electrophoresis (SDS-PAGE) sample buffer (Nacalai Tesque, Inc.) at a ratio of 5:1, boiled for 5 min, and used as a detection sample of neprilysin, α-secretase and β-secretase proteins.
The PVDF membrane after transfer was washed with a wash buffer and immersed in a blocking buffer to prevent non-specific binding of the primary antibody, and a blocking reaction was performed at room temperature for 1 hr. […] The PVDF membrane after the reaction was washed with the wash buffer and the secondary antibody (horseradish peroxidase conjugated anti-mouse or anti-rabbit IgG (1:10,000; GE Healthcare UK Ltd.)) corresponding to the primary antibody was reacted at room temperature for 1 hr and detection was carried out using the ECL Select Western Blotting Detection Kit (GE Healthcare UK Ltd.).
The signal intensity of the band was quantified using a densitometer LAS-4000 (GE Healthcare UK Ltd.) and image analysis software Science Laboratory 2003 Image Gauge Version 4.23 (Fujifilm Holdings Corporation, Tokyo, Japan).

[3] = tested on: neprilysin mRNA (MME gene); experiment: neprilysin mRNA expression (quantitative real-time PCR, MME gene); format: cell-based, human; settings: standardized to GAPDH mRNA (FIG. 3)
Experimental: (§2) In the same manner as in the above-mentioned 2, total RNA was prepared using a High Pure RNA Isolation kit (Roche 11828665001) from the cells to be the test target cells, which were treated with each polyphenol derivative and cultured, and subjected to a reverse transcription reaction using PrimeScript RT-PCR kit (TaKaRaRR014A) to give a sample (cDNA) for real-time PCR.
(§3) The prepared sample, Premix Ex taq (Perfect Real Time) (TaKaRaRR039A) and a probe, and a primer were mixed in a tube (TaKaRa SC910A), and real-time PCR reaction (initial denaturation: 95° C. 30 sec, PCR reaction: 95° C. 5 sec, 60° C. 20 sec, 40 times) was performed by Smart Cycler II System machine (TaKaRa).
(§4) The 5′-terminus of the probe was modified by a fluorescent substance FAM, and the 3′-terminus was modified by a quencher substance TAMRA, respectively.

β-secretase = biological target: T1, β-secretase (Homo sapiens, UniProt P56817); experiment: β-secretase activity (APPsβ, western blot); format: cell-based; settings: APP-H4 culture supernatant, APPsβ (FIG. 2)
T1 construct: endogenous in cells; host or cells: APP-H4 cells (culture supernatant analysed)
Experimental: as §1, with “extract. […]” for “extract.”
(§5) The signal intensity of the band was quantified using a densitometer LAS-4000 (GE Healthcare UK Ltd.) and image analysis software Science Laboratory 2003 Image Gauge Version 4.23 (Fujifilm Holdings Corporation, Tokyo, Japan). […]

APP = experiment: extracellularly secreted APPsα/APPsβ ratio (western blot); format: cell-based, human; settings: APP-H4 culture supernatant (FIG. 2)
Experimental: as §1
After thawing from −80° C., the aforementioned culture supernatant was mixed with 6×SDS-polyacrylamide gel electrophoresis (SDS-PAGE) sample buffer (Nacalai Tesque, Inc.) at a ratio of 5:1, boiled for 5 min, and used as a detection sample of APPsα which is a metabolite of APP by α-secretase and APPsβ which is a metabolite of APP by β-secretase in western blot analysis.
The PVDF membrane after transfer was washed with a wash buffer and immersed in a blocking buffer to prevent non-specific binding of the primary antibody, and a blocking reaction was performed at room temperature for 1 hr. Thereafter, it was reacted with a primary antibody (APPsα, anti-human APPsα mouse monoclonal antibody (2B3, Immuno-Biological Laboratories Co., Ltd., Gunma, Japan) (3 μg/mL); APPsβ, anti-APPsβ, rabbit polyclonal antibody, 1 μg/mL) to perform an antigen-antibody-reaction at 4° C. for not less than 16 hr. […]
as §5

ADAM17 = experiment: α-secretase mRNA expression, ADAM17 (real-time PCR); format: cell-based, human; settings: control = 1
Experimental: as §2, §3, §4

[4] = tested on: neprilysin, α-secretase, β-secretase; experiment: overall conclusion on modulation of neprilysin, α-secretase and β-secretase (Example 1); format: cell-based, human; settings: conclusion from the results of Example 1
Experimental: as §1
The neprilysin-dependent neutral endopeptidase activity of the cell extract was measured fluorescence quantitatively by an indirect coupled enzyme assay method. As a neutral endopeptidase substrate, succinyl-Ala-Ala-Phe-7-amino-4-methylcoumarin (suc-AAF-AMC) (1-1315; Bachem) was used. Total 50 μL of the reaction mixture was prepared such that the final concentration was substrate 0.1 mM suc-AAF-AMC, protein in the cell extract 1-6 μg, 100 mM MES buffer (pH 6.5). With the time of addition of the substrate as the start of the reaction, the mixture was reacted at 37° C. for 1 hr, and Phe-AMC was cut out from the substrate by neutral endopeptidase. Then, to the reaction mixture was added a solution (2.5 μL) containing 0.1 mg (0.4 unit equivalent)/mL leucine aminopeptidase (L-5006; Sigma-Aldrich), and 0.2 mM phosphoramidon (4082; Peptide Institute). The mixture was reacted at 37° C. for 30 min, and Phe (phenylalanine) residue was cut out from Phe-AMC by aminopeptidase. Using microplate spectrometer Infinite M-1000 (Tecan), the fluorescence intensity of free AMC was measured by measuring at an excitation wavelength 390 nm and a fluorescence wavelength 460 nm on a half-well size 96-well black plate (#3695; Corning). The neprilysin-dependent neutral endopeptidase activity was determined based on a decrease in the activity due to 10 μM thiorphan (T-6031; Sigma-Aldrich) as a neprilysin specific inhibitor.
After thawing from −80° C., the aforementioned culture supernatant was mixed with 6×SDS-polyacrylamide gel electrophoresis (SDS-PAGE) sample buffer (Nacalai Tesque, Inc.) at a ratio of 5:1, boiled for 5 min, and used as a detection sample of APPsα which is a metabolite of APP by α-secretase and APPsβ which is a metabolite of APP by β-secretase in western blot analysis. […]

[5] = coefficient of partition for octanol, in accordance with Fudouji et al. 2009; cited from earlier work
neprilysin [6] = experiment: neprilysin activity staining of primary culture nerve cells; format: cell-based; settings: mouse primary culture nerve cells, 48 hr; Minocycline 5 μM, Somatostatin and Harmine 1 μM, others 10 μM (FIG. 4C)
Experimental: This is a method of measuring the amount of neprilysin localized on the cell membrane surface by using cultured cells. Since Aβ is secreted extracellularly, the more neprilysin is present on the cell membrane, the more efficiently Aβ can be degraded and removed. The following procedure was performed according to a previous report (JP-A-2004-151079; Saito T., Iwata N., et al., Nat. Med. 11(4), 434-439, 2005).
Nerve cells prepared from mouse embryocerebral cortex and hippocampus were cultured and fixed, and reacted with a substrate. After completion of the reaction, aminopeptidase-phosphoramidon mixture and nitrosalicylaldehyde solution were sequentially added and reacted. For the cells after completion of the reaction, positively stained images were observed using a filter for argon laser and rhodamine under a confocal laser microscope. More conveniently, it is also possible to observe positively stained images by using a FITC filter under a fluorescence microscope. When the substrate is degraded by neprilysin, an insoluble fluorescence reaction product is formed, and the site where neprilysin is present is visualized in yellow (pseudocolor and could be green). When the cells are stained by this method, the copresence of thiorphan, which is a specific inhibitor of neprilysin, causes disappearance of the positively stained images, and therefore, the presence of neprilysin on the cell surface of primary culture nerve cells of mouse embryocerebral cortex and hippocampus can be confirmed.
The nerve cells prepared from mouse embryocerebral cortex and hippocampus were cultured, the following test compounds were individually added at a given concentration from day 7 to day 21 of culture, and further cultured for 48 hr. After completion of the culture, the neprilysin activity of the mouse primary culture nerve cells was visualized and observed by the method shown in the above-mentioned 1. The stained images were quantified by an image analysis software (MetaMorph, ver. 7.7 (Universal Imaging Corporation, Downington, Pa.)) and studied. […]

α-secretase = α-secretase activity (APPsα, western blot); format: cell-based, human; settings: APP-H4 culture supernatant, APPsα (FIG. 2)
Experimental: as §1, with “The cells were recovered in a 1.5 mL tube and centrifuged at 4,000×g/4° C./10 min. The supernatant was removed and the cells were preserved at −80° C. before sample preparation. The frozen cells were lysed in 40 μL of solubilization buffer containing 1% Triton X-100, protease inhibitor cocktail Complete™ EDTA-free (Roche) and 50 mM Tris-HCl on ice. The cell lysate was incubated on ice for 60 min, centrifuged at 4° C., 21,900×g for 30 min, and the supernatant was recovered and used as a solubilization cell extract.” left out
as §5

T1 sequence (P56817 46-501): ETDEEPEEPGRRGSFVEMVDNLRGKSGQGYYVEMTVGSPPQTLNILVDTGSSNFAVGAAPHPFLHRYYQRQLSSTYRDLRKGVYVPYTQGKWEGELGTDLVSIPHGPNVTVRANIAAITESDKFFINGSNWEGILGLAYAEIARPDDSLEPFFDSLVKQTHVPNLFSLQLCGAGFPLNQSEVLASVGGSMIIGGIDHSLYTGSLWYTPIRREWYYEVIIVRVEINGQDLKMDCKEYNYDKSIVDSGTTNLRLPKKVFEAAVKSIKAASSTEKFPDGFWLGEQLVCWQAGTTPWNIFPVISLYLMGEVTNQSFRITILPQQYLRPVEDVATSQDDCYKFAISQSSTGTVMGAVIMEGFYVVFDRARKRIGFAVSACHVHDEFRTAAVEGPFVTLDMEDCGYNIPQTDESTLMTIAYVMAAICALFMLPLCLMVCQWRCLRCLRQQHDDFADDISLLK

SMILES | neprilysin activity potentiating action (neprilysin [1]) | expression amount of neprilysin at the protein level (neprilysin [2]) | expression level of neprilysin at the mRNA level [3] | β-secretase activity, remaining relative to control (β-secretase) | extracellularly secreted APPsα/APPsβ ratio (APP) | ADAM17 expression at the mRNA level (ADAM17) | modulator class (neprilysin / α-secretase / β-secretase) [4] | log P octanol [5] | neprilysin activity potentiating action (activity staining) (neprilysin [6]) | α-secretase activity (α-secretase)
C/C(=C\Cc1c(O)cc2c(c1O)C[C@@H](OC(=O)c1cc(O)c(O)c(O)c1)[C@@H](c1cc(O)c(O)c(O)c1)O2)CCCC(C)CCCC(C)CCCC(C)C (stereo partly drawn) [NUP-19] | about 2.7 times that of control | about 3.2 times that of control | about 2.1 times that of control | about 37 % that of control | about 1.4 times that of control | about 1.3 times that of control | double modulator | >10 | – | –
CN(C)CCCN1c2ccccc2Sc2ccc(Cl)cc21 [Chlorpromazine] | – | – | – | – | – | – | – | – | neprilysin activity potentiating action | –
CC(C)=CCC/C(C)=C/Cc1c(O)cc(O)c2c1O[C@H](c1cc(O)c(O)c(O)c1)[C@H](OC(=O)c1cc(O)c(O)c(O)c1)C2 [NUP-16] | about 1.8 times that of control | about 1.8 times that of control | – | – | about 1.6 times that of control | about 1.2 times that of control | double modulator | 2.55 | – | about 1.7 times that of control
Oc1ccc(/C=C/c2cc(O)cc(O)c2)cc1 [Resveratrol] | about 1.4 times that of control | – | – | – | – | – | – | – | neprilysin activity potentiating action | –
CC1CCC2C(C1)c1c(c3c(c4c1OC(C)(C)C1CCC(C)CC41)O[C@H](c1cc(O)c(O)c(O)c1)[C@H](OC(=O)c1cc(O)c(O)c(O)c1)C3)OC2(C)C (stereo partly drawn) [NUP-11] | about 3.5 times that of control | about 3.3 times that of control | about 4 times that of control | about 41 % that of control | about 2.0 times that of control | about 2.4 times that of control | double modulator | >10 | – | –
COc1ccc2c(c1)[nH]c1c(C)nccc12 [Harmine] | – | – | – | – | – | – | – | – | neprilysin activity potentiating action | –
